Drawing on ChEMBL document CHEMBL1154198, “Chemical genetics of Plasmodium falciparum” (Nature, 2010), this text covers EC50 for 70 compounds.

A word on the EC50: it is the concentration at which the effect is half-maximal. Low values mean an effect from little substance, high ones a need for much substance.

Assay [1] concerns Plasmodium falciparum. Kind of assay: ST_JUDE: Plasmodium falciparum 3D7 EC50 (uM) as measured by SYBR green dye. It counts as functional, organism-based.
Assay [2] concerns Plasmodium falciparum. Kind of assay: ST_JUDE: Plasmodium falciparum K1 EC50 (uM) as measured by SYBR green dye. It counts as functional, organism-based.

Regarding `CCN1CCN(c2cc(C)c3cc(NC(=S)NCCCN4CCN(c5cccc(Cl)c5)CC4)ccc3n2)CC1`, the results for the EC50 in the assay on Plasmodium falciparum [1] and in the assay on Plasmodium falciparum [2] were 2.24 µM and 4.24 µM, respectively.
In the same order, the values of `COc1ccccc1NC(=O)CN1CCN(C(=O)c2ccco2)CC1` are 2.84 µM and 4.84 µM.
As to `Cc1ccc(C(=O)Nc2ccc3c(c2)N(S(=O)(=O)c2ccc(F)cc2)CCC3)cc1`, the EC50 with Plasmodium falciparum [1] and with Plasmodium falciparum [2] was over 15 µM each time.
On to `COc1ccccc1Cn1ccnc1SCC(=O)Nc1cccc(C(F)(F)F)c1`, for which the EC50 in the assay with Plasmodium falciparum [1] came out at 1.47 µM; in the assay on Plasmodium falciparum [2], 1.59 µM.
In the same order, the values of `Cc1ccc2nc(-c3ccc(C)c(NC(=O)C(Cl)(Cl)Cl)c3)oc2c1` are over 15 µM and 4.17 µM.
In the same order, the values of `Cc1cccc(NC(=O)c2cc3ccccc3cc2O)c1` are 1.15 µM and 0.602 µM.
In the same order, the values of `CCN(CC)c1ccc(C(NC(=O)C(C)C)c2ccc3cccnc3c2O)cc1` (stereo not given) are 4.85 µM and 5.82 µM.
For the compound `CCCCN(CC)CCNC(=O)c1cc2cc3ccc(C)cc3nc2o1`, the 50% effective concentration (EC50) in the assay with Plasmodium falciparum [1] is over 15 µM; in the assay with Plasmodium falciparum [2], 4.09 µM.
In the same order, the values of `COc1cccc2sc(N(Cc3cccnc3)C(=O)C3CCCCC3)nc12` are over 15 µM and over 15 µM.
In the same order, the values of `CCOc1ccc2nc(C)cc(Nc3ccc(N4CCOCC4)cc3)c2c1` are 0.982 µM and 6.36 µM.
In the same order, the values of `Oc1c(Cl)cc(Cl)cc1CN1CCN(c2ccccc2F)CC1` are 1.85 µM and 0.861 µM.
Consider `CCN(CC)CCNC(=O)c1ccc2c(c1)sc1nc(-c3ccc(C)cc3)cn12`, for which the figures for the concentration for a half-maximal effect (EC50) in the assay with Plasmodium falciparum [1] and in the assay on Plasmodium falciparum [2] were 1.65 µM and 4.83 µM, respectively.
In the same order, the values of `CCOCC(=O)Nc1cc(C(F)(F)F)ccc1Oc1cccc(Br)c1` are 0.83 µM and over 15 µM.
In the case of `CCN(CC)C(=O)c1ccc2c(c1)N(Cc1ccccc1)C(=O)c1ccccc1S2(=O)=O`, the EC50 in the assay on Plasmodium falciparum [1] and in the assay on Plasmodium falciparum [2] was over 15 µM throughout.
In the case of `COc1ccc2c(c1)C=C/C(=C\c1sc3ccccc3[n+]1C)N2C`, the EC50 in the assay with Plasmodium falciparum [1] stood at 0.163 µM; in the assay on Plasmodium falciparum [2], 0.145 µM.
In the same order, the values of `CCCCCCCCCn1ccc(=N)cc1` are 0.835 µM and 0.465 µM.
In the same order, the values of `COc1ccc(C(O)(CCC(C)C)C(CN2CCOCC2)c2ccc(Cl)cc2)cc1` (stereo not given) are 4.61 µM and 3.5 µM.
In the same order, the values of `Cc1ccc2nc3c(cc(C(=O)NC(C)c4ccccc4)c(=N)n3CC3CCCO3)c(=O)n2c1` (stereo not given) are over 15 µM and over 15 µM.
As for `CCCc1cc(O)nc(-n2nc(C)cc2NC(=O)c2ccc(C)cc2)n1`, the EC50 in the assay on Plasmodium falciparum [1] and in the assay on Plasmodium falciparum [2] was over 15 µM in each case.
Turning to `Cc1ccc2[nH]c(-c3cccc(-c4nc5cc(C)ccc5[nH]4)n3)nc2c1`, the EC50 is 3.23 µM in the assay with Plasmodium falciparum [1] and 7.6 µM with Plasmodium falciparum [2].
On to `O=C1C(Nc2cccc(C(F)(F)F)c2)=C(N2CCCCC2)C(=O)c2ccccc21`, for which the 50% effective concentration (EC50) in the assay with Plasmodium falciparum [1] was found to be 0.852 µM; in the assay with Plasmodium falciparum [2], 1.49 µM.
In the same order, the values of `CCOc1cccc2sc(N(Cc3cccnc3)C(=O)C3CCCCC3)nc12` are 3.04 µM and 2.23 µM.
In the same order, the values of `Cc1ccc(Nc2cc(C)nc(Nc3ccc(NS(=O)(=O)c4cccc(F)c4)cc3)n2)cc1` are 1.24 µM and over 15 µM.
In the case of `COc1ccc(C(=O)CSc2nnc(Cc3cc(O)nc(O)n3)n2-c2ccc(Cl)cc2)cc1`, the concentration for a half-maximal effect (EC50) in the assay with Plasmodium falciparum [1] and in the assay on Plasmodium falciparum [2] was over 15 µM each time.
Take `CC[N+](CC)(CC)CCCOC1CC(C)CCC1C(C)C` (stereo not given): the results for the EC50 in the assay with Plasmodium falciparum [1] and with Plasmodium falciparum [2] were over 15 µM and 4.65 µM, respectively.
In the same order, the values of `CC[n+]1ccccc1/C=C1\Sc2ccc(C)cc2N1C` are 0.572 µM and 0.453 µM.
In the same order, the values of `COc1ccc(OC)c(NC(=O)C2c3ccccc3C(=O)N(CC(C)C)C2c2cccs2)c1` (stereo not given) are 0.503 µM and 0.612 µM.
As to `Cc1ccsc1CN(C(=O)COc1ccc(C(C)C)cc1)C1CCS(=O)(=O)C1` (stereo not given), the EC50 in the assay on Plasmodium falciparum [1] and with Plasmodium falciparum [2] was over 15 µM in each case.
Consider `CCCCN(C)C(=O)C1c2ccccc2C(=O)N(CC(C)C)C1c1cccs1` (stereo not given), for which the values for the concentration giving a half-maximal response (EC50) in the assay with Plasmodium falciparum [1] and in the assay on Plasmodium falciparum [2] were 1.52 µM and 1.74 µM, respectively.
As to `N=C(N)N/N=C/c1ccc(OCc2ccc(Cl)cc2Cl)cc1`, the results for the EC50 in the assay on Plasmodium falciparum [1] and with Plasmodium falciparum [2] were 4.9 µM and 4.27 µM, respectively.
In the same order, the values of `O=C(COc1ccc(Cl)cc1)N1CCN(Cc2cccc([N+](=O)[O-])c2)CC1` are over 15 µM and over 15 µM.
Turning to `CCOC(=O)c1c(NC(=O)C(c2ccccc2)c2ccccc2)sc(C(=O)N(CC)CC)c1C`, the EC50 in the assay with Plasmodium falciparum [1] and in the assay on Plasmodium falciparum [2] was over 15 µM throughout.
As to `O=C(c1ccco1)N(Cc1ccccc1)c1cccc([N+](=O)[O-])c1`, the EC50 in the assay on Plasmodium falciparum [1] and with Plasmodium falciparum [2] was over 15 µM throughout.
As for `COc1cccc(-c2nn(C)c3sc(C(=O)NCCN4CCN(Cc5ccccc5)CC4)cc23)c1`, the concentration for a half-maximal effect (EC50) with Plasmodium falciparum [1] and in the assay on Plasmodium falciparum [2] was over 15 µM in each case.
As to `O=C(NCc1ccccc1)C1CCC(Cn2c(=O)c3ccccc3n(Cc3cccc(F)c3)c2=O)CC1` (stereo not given), the half-maximal effective concentration (EC50) in the assay with Plasmodium falciparum [1] and in the assay on Plasmodium falciparum [2] was over 15 µM in each case.
As to `CN(C)c1ccc(C2N(C)c3ccccc3N2C)cc1`, the results for the half-maximal effective concentration (EC50) with Plasmodium falciparum [1] and with Plasmodium falciparum [2] were 4.27 µM and 4.44 µM, respectively.
Consider `CCOc1ccc(NC(=O)CSc2nncc(O)n2)cc1`, for which the values for the EC50 with Plasmodium falciparum [1] and in the assay on Plasmodium falciparum [2] were 0.734 µM and 0.994 µM, respectively.
Take `Cc1ccc(N(CC(=O)NCCSc2ccc(Cl)cc2)S(=O)(=O)c2ccc(F)cc2)cc1`: the half-maximal effective concentration (EC50) with Plasmodium falciparum [1] and in the assay on Plasmodium falciparum [2] was over 15 µM in each case.
On to `CC(C)(C)CC(C)(C)c1ccc(O)c(CN2CCN(c3ccccc3)CC2)c1`, for which the results for the half-maximal effective concentration (EC50) with Plasmodium falciparum [1] and with Plasmodium falciparum [2] were 0.354 µM and 0.174 µM, respectively.
In the same order, the values of `CCOC(=O)c1cccc(NC(=O)CC2C(=O)N(c3ccc(Cl)cc3)C(=O)N2C2CCCC2)c1` (stereo not given) are 1.42 µM and 2.7 µM.
In the same order, the values of `O=C1CC(c2ccc(Cl)c(Cl)c2)C2=C(CC(c3ccc(F)cc3)CC2=O)N1` (stereo not given) are over 15 µM and 4.38 µM.
In the same order, the values of `NNC(=O)CNC(c1ccccc1)c1cc(Br)ccc1NC(=O)c1ccccc1Br` (stereo not given) are 1.89 µM and 1.65 µM.
Consider `O=C(Nc1ccc(-c2nc3ccccc3[nH]2)cc1)[C@H](Cc1ccccc1)N1Cc2ccccc2C1=O`, for which the EC50 in the assay with Plasmodium falciparum [1] is 2.56 µM; in the assay on Plasmodium falciparum [2], over 15 µM.
With `Cc1ccc(CN2CCN(c3nc4c(c(=O)[nH]c(=O)n4C)n3Cc3ccc(C)cc3)CC2)cc1`, the concentration giving a half-maximal response (EC50) in the assay on Plasmodium falciparum [1] and in the assay with Plasmodium falciparum [2] was over 15 µM each time.
For `CC(C)CC(=O)NC(c1ccc(Cl)cc1Cl)c1ccc2cccnc2c1O` (stereo not given), the half-maximal effective concentration (EC50) in the assay on Plasmodium falciparum [1] and in the assay with Plasmodium falciparum [2] was over 15 µM throughout.
With `CN(C)c1ccc(/C=C/c2cc(/C=C/c3ccc(N(C)C)cc3)n3n[n+](C)nc3n2)cc1.[O-][Cl+3]([O-])([O-])[O-]`, the half-maximal effective concentration (EC50) in the assay on Plasmodium falciparum [1] amounted to 0.641 µM; with Plasmodium falciparum [2] it was 0.514 µM.
In the same order, the values of `COc1ccc(C2C(C(=O)OC(C)C)=C(C)N=c3s/c(=C\c4cc(Cl)ccc4O)c(=O)n32)cc1` (stereo not given) are 7 µM and 0.331 µM.
`CCc1cc2c(=O)c(Oc3ccc(Cl)cc3)coc2cc1OC(C)=O`: the EC50 in the assay on Plasmodium falciparum [1] and with Plasmodium falciparum [2] was over 15 µM throughout.
As for `COc1ccc(Cl)cc1NC(=O)C1c2ccccc2C(=O)N(CC(C)C)C1c1cccs1` (stereo not given), the EC50 was determined as 0.367 µM with Plasmodium falciparum [1] and 0.386 µM in the assay on Plasmodium falciparum [2].
In the same order, the values of `CCN(CC)c1cc(C)c2cc(NC(=O)c3ccc(Cl)c([N+](=O)[O-])c3)ccc2n1` are over 15 µM and over 15 µM.
In the same order, the values of `CCCOc1ccc(/C=C/c2ccc3cccc(O)c3n2)cc1` are over 15 µM and over 15 µM.
In the same order, the values of `Cc1cccc(C2Sc3ccccc3N=C3C2=C(O)c2ccccc23)c1` (stereo not given) are 1.89 µM and 1.77 µM.
As for `CCN(CC)CCOC(=O)c1ccc(NC(=O)c2cc3cc4cc(OC)ccc4nc3s2)cc1`, the concentration for a half-maximal effect (EC50) with Plasmodium falciparum [1] stood at 1.7 µM; in the assay with Plasmodium falciparum [2] it was 3.31 µM.
In the same order, the values of `COc1ccc(/C=C/c2cc[n+](C)cc2)cc1` are 3.4 µM and 3.82 µM.
In the same order, the values of `CCCCN(CC)CCCNC(=O)Cn1ncc2c3ccccc3n(Cc3ccccc3)c2c1=O` are over 15 µM and over 15 µM.
For the compound `CC(C)C(=O)N1CCOc2c(cc(-c3csc4ccccc34)cc2OCCc2ccccn2)C1`, the 50% effective concentration (EC50) is over 15 µM in the assay on Plasmodium falciparum [1] and 4.48 µM in the assay with Plasmodium falciparum [2].
Consider `CCOc1ccc(-c2nonc2NC(=O)c2cccc(C)c2)cc1OCC`, for which the values for the EC50 with Plasmodium falciparum [1] and in the assay with Plasmodium falciparum [2] were 0.0619 µM and 0.0832 µM, respectively.
As for `CC(=O)NC(c1cccs1)c1cc(Cl)c2cccnc2c1O` (stereo not given), the half-maximal effective concentration (EC50) in the assay on Plasmodium falciparum [1] was over 15 µM; in the assay on Plasmodium falciparum [2] it was 5.89 µM.
In the same order, the values of `O=C(Nc1ccc(N2CCCCC2)c(Cl)c1)c1ccc(F)cc1` are over 15 µM and 0.801 µM.
In the same order, the values of `COc1cc(/C=C/c2ccc3cccc(OC(C)=O)c3n2)cc(Cl)c1OC` are over 15 µM and 6.11 µM.
In the same order, the values of `CCCN1C(=O)c2[nH]nc(-c3c(C)cc(C)cc3O)c2C1c1ccc(OC)cc1` (stereo not given) are 3.36 µM and 2.02 µM.
On to `CCOc1cc2c(cc1OCC)C(c1cc(Cl)c(O)c(OCC)c1)NCC2` (stereo not given), for which the 50% effective concentration (EC50) turned out to be 3.01 µM with Plasmodium falciparum [1] and 1.76 µM in the assay on Plasmodium falciparum [2].
In the same order, the values of `CCOCCn1/c(=N/C(=O)COc2ccc(Cl)cc2)sc2cc(OCC)ccc21` are over 15 µM and over 15 µM.
As to `Cc1ccc(C2CC(c3cccs3)=NN2C(=O)c2ccc(Br)o2)cc1` (stereo not given), the EC50 in the assay on Plasmodium falciparum [1] is 0.532 µM; in the assay with Plasmodium falciparum [2], over 15 µM.
In the same order, the values of `COc1ccc2nc(C)cc(Nc3ccc(N4CCOCC4)cc3)c2c1` are 4.69 µM and over 15 µM.
On to `COc1ccccc1C1CC(c2ccccc2)=NN1C(=O)c1ccco1` (stereo not given), for which the EC50 in the assay on Plasmodium falciparum [1] came out at 0.594 µM; in the assay with Plasmodium falciparum [2], 4.33 µM.
In the same order, the values of `CC(C)OCCNC(=O)CC1C(=O)NCCN1Cc1cccc(C(F)(F)F)c1` (stereo not given) are over 15 µM and over 15 µM.
On to `C[n+]1ccc(/C=C/c2ccc3c(c2)OCO3)cc1`, for which the 50% effective concentration (EC50) came out at 3.47 µM in the assay with Plasmodium falciparum [1] and 2.39 µM in the assay on Plasmodium falciparum [2].
In the same order, the values of `COc1cc(NC(=O)N2CCn3cccc3C2c2ccc(F)cc2)cc(OC)c1OC` (stereo not given) are 4.15 µM and 3.75 µM.
As for `Cc1nc2c3cc(F)ccc3n(C)c2s1`, the EC50 in the assay with Plasmodium falciparum [1] and in the assay with Plasmodium falciparum [2] was over 15 µM throughout.
